# Measured values: patent US9629892B2, “Treatment of penetrative injury to the brain” (NoNO Inc., priority 2010, dated 2017)
# Entries after “also recorded” stand apart in the source; their conditions may differ.
# Experiments:
# [1] = molecular target: binding of NMDAR 2B to PSD95 (Homo sapiens, UniProt P78352); details: reported by Bach; cited from earlier work
# PBBI rats [2] = assay: PBBI neuropathology: lesion volume in brain sections (H&E, TTC staining); details: for overall (total) lesion volume: Study 1, H&E stained sections, 7 days
# Protocol: Male Sprague-Dawley rats (250-300 g) were subjected to a simulated ballistic wound to the right frontal hemisphere implemented by an inflatable penetrating probe. Three levels of injury severity were compared to control animals. Neurological and physiological outcome was assessed over a 3-day recovery period and brain tissue collected at 72 h for histopathological evaluation.
# Tat-NR2B9c was administered i.v. in the jugular vein by an 8 minute infusion 30 minutes after inducing brain injury. Rats were sacrificed for histologic examination after 7 days. The dose of Tat-NR2B9c was Study I: 0.5 and 5.0 mg/ml/kg and Study II: 0.05, 0.275, and 0.5 mg/ml/kg. The rats were subject to the following treatments in Study I and II (sham=rat not subject to ballistic injury, PBBI=penetrative ballistic brain injury, veh=vehicle).
# Study 1 evaluated two concentrations of Tat-NR2B9c (0.5 mg/kg and 5.0 mg/kg) (n=10 each group) with a survival period of 1 week. […] Behavioral and histological endpoints for both experiments included neurological assessments on neuroscore, balance beam, and rotarod tests, and lesion reconstruction on H&E stained sections.
# As with the previous experiments, Tat-NR2B9c was administered as a slow bolus (8 minute) 30 minutes after PBBI.
# PBBI rats [3] = assay: Body temperature after PBBI and dosing; format: in vivo, rat; details: approximately 90 minutes following PBBI (60 minutes following dosing)
# PBBI rats [4] = assay: Fixed-speed rotarod task after PBBI injury; format: in vivo, rat; details: for rotarod task recovery: Study 1, 0.50 mg/kg, 7 days post-PBBI
# Protocol: (§1) Body weight was assessed at time 0 (baseline), 24, 72 h and 7 days post injury. Body temperature was assessed at time 0, 30 min (prior to treatment), 2, 24, 72 h, and 7 days post injury. Neuroscore was assessed at 0, 30 min (prior to treatment), 24, 72 h, 7 days post injury. Balance beam was assessed at time 0, 3, and 7 days post injury. Rotarod was assessed at time 0 and 7 days post injury.
# FIGS. 3A and B show dose-response studies on a rotarod. Rats were trained to criteria on the fixed-speed version of the rotarod task prior to PBBI and tested at 7 days post-PBBI. […] Columns=means; error bars=SEM; *p<0.05 compared to PBBI
# PBBI rats [5] = assay: Balance beam footfaults after PBBI injury; format: in vivo, rat; details: for footfaults per beam segment contralateral to site of injury / rats unable to cross the beam (assigned maximal footfault scores): 3 days post-PBBI; for rats unable to cross the beam: 7 days post-PBBI
# PBBI rats [6] = assay: Morris Water Maze (MWM) task after PBBI; format: in vivo, rat; details: multiple dosing (four injections at 30 minutes, 24, 48 and 72 hours post-PBBI; 0.5 and 5 mg/kg); at 5 or more days
# Protocol: FIGS. 6A-D show the effects of multiple dosing regimes on neuroscore, rotarod and MWM performance Animals were given four injections of Tat-NR2B9c post-PBBI at 30 minutes, 24 hours, 48 hours and 72 hours.
# PBBI rats [7] = assay: Neuroscore after PBBI injury; format: in vivo, rat; details: Study 1, 0.5 mg/kg i.v. 8 minute infusion 30 minutes after PBBI, 72 hours post-PBBI, vs PBBI/veh
# Protocol: as §1
# Columns=means; error bars=SEM; *p<0.05 compared to PBBI; †p<0.05 compared to 0.05 mg/kg Tat-NR2B9c; #p<0.05 compared to 0.275 mg/kg Tat-NR2B9c.
# cerebral ischemia = details: reported in WO 2008/014917; cited from earlier work
# binding of NMDAR 2B to PSD95, sequence (P78352 whole entry): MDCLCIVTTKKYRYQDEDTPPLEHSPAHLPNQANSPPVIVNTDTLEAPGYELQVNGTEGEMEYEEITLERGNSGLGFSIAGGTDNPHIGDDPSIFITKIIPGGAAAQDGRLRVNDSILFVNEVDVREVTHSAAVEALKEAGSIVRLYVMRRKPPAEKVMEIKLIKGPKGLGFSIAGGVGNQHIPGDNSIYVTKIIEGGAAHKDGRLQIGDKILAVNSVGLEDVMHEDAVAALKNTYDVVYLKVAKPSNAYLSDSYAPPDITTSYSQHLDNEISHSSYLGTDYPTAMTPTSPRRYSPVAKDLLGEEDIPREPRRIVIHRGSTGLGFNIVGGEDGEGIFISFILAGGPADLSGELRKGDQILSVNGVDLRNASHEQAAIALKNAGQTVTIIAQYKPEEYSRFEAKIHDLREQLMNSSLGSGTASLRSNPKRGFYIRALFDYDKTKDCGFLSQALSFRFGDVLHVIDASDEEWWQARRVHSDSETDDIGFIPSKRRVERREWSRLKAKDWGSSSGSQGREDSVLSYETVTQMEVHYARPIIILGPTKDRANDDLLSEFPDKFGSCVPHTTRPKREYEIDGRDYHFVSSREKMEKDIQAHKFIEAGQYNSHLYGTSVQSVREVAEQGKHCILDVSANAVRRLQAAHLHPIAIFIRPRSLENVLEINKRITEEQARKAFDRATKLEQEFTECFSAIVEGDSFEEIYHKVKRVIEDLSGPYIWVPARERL
substance,measurement,setting,value
IESDV (listed as Homo sapiens),inhibition of binding of NMDAR 2B to PSD95,[1],effective in inhibiting binding of NMDAR 2B to PSD95
YGRKKRRQRRRKLSSIESDV [Tat-NR2B9c],total lesion volume,"PBBI rats [2]; 20 mg/kg, TTC staining, p<0.05 vs PBBI/veh",37±4 mm^3
same,reduction in total lesion volume,"PBBI rats [2]; 20 mg/kg, TTC staining, vs PBBI/veh",33%
same,overall (total) lesion volume,PBBI rats [2]; 0.5 mg/kg,did not significantly reduce overall lesion volume; also recorded: did not reach a significant neuroprotective effect on total lesion volume
same,overall (total) lesion volume,PBBI rats [2]; 5.0 mg/kg,did not significantly reduce overall lesion volume; also recorded: did not reach a significant neuroprotective effect on total lesion volume
same,hypothermic effect (measured in the rectum),PBBI rats [3],about 2 degrees C.
same,mean rotarod latencies across speeds relative to vehicle-treated PBBI rats,PBBI rats [4]; 20 mg/kg single slow bolus 30 minutes after PBBI,> 2 fold
same,mean rotarod latency across speeds,"PBBI rats [4]; 20 mg/kg, p<0.05 vs PBBI/veh",29 ± 3 s
same,rotarod performance,"PBBI rats [4]; Study 1 (FIG. 3A), 0.5 mg/kg, summary statement",significantly improved
same,rotarod task recovery,PBBI rats [4]; higher speeds (20-25 rpm),but not at higher speeds
same,rotarod task recovery,PBBI rats [4]; two lower speeds (10-15 rpm),promoted significant recovery (to SHAM levels)
same,footfaults per beam segment contralateral to site of injury,"PBBI rats [5]; Study 1, 0.5 mg/kg, vs PBBI rats",made significantly fewer foot faults than the PBBI rats
same,footfaults per beam segment contralateral to site of injury,"PBBI rats [5]; Study 1, 5.0 mg/kg, vs PBBI rats",made significantly fewer foot faults than the PBBI rats
same,rats unable to cross the beam (assigned maximal footfault scores),"PBBI rats [5]; Study 1, high-dose, of 10 animals per group",two
same,rats unable to cross the beam,"PBBI rats [5]; Study 1, high-dose",one
same,rats unable to cross the beam (assigned maximal footfault scores),"PBBI rats [5]; Study 1, low-dose, of 10 animals per group",two
same,footfaults per beam segment contralateral to site of injury,"PBBI rats [5]; Study 2, 0.275 mg/kg, narrowest beam segment, vs PBBI animals",made fewer footfaults than the PBBI animals
same,footfaults per beam segment contralateral to site of injury,"PBBI rats [5]; Study 2, 0.50 mg/kg, narrowest beam segment, vs PBBI animals",made fewer footfaults than the PBBI animals
same,rats unable to cross the beam (assigned maximal footfault scores),"PBBI rats [5]; Study 2, high-dose, of 10-11 animals per group",one
same,rats unable to cross the beam (assigned maximal footfault scores),"PBBI rats [5]; Study 2, low-dose, of 10-11 animals per group",three
same,rats unable to cross the beam,"PBBI rats [5]; Study 2, low-dose",one
same,rats unable to cross the beam (assigned maximal footfault scores),"PBBI rats [5]; Study 2, medium-dose, of 10-11 animals per group",one
same,MWM performance,PBBI rats [6],possibly an improvement in the MWM performance
same,stability of lyophilized composition,"lyophilized at 1-50 mg/ml in normal saline, with or without excipients",stable at −20 °C or at room temperature
same,period of stability (insignificant degradation or aggregation of the peptide),"peptide in normal saline at 10-30 mg/ml, stored frozen",two
same,neuroscore (PBBI-induced neurological deficits),PBBI rats [7],"significant, reduction in PBBI-induced neurological deficits; also recorded: significantly improved neuroscore"
vdseissllurrqrrkkrgyin [retro-inverso analog of Tat-NR2B9c],inhibition of cerebral ischemia,cerebral ischemia,effective inhibiting cerebral ischemia
